Laboratory results from ChEMBL document CHEMBL3822454, “On the vasoprotective mechanisms underlying novel β-phosphorylated nitrones: Focus on free radical characterization, scavenging and NO-donation in a biological model of oxidative stress” (Eur J Med Chem, 2016).
Activity calls are given as the source filed them. The calls are words filed in the database; no cut-off is given here.

Assays:
[1] = molecular target: Xanthine dehydrogenase/oxidase (Homo sapiens, UniProt P47989); assay: Inhibition of xanthine oxidase (unknown origin) using xanthine as substrate assessed as inhibition of uric acid formation at 1 to 100 uM after 30 mins by spectrophotometric method; conditions: 0.5 h
[2] = Cytotoxicity against BAEC assessed as decrease in total intracellular LDH content at 15 mM measured after 1 hr by LDH assay relative to vehicle-treated control; format: cell-based, Bos taurus; parameters: scale not given: the % may be the effect or the level left; conditions: cattle, 15000 µM
[3] = Cytotoxicity against BAECs assessed as decrease in total intracellular LDH content at 15 mM measured after 3 hrs by LDH assay relative to vehicle control; format: cell-based, Bos taurus; parameters: scale not given: the % may be the effect or the level left; conditions: cattle, baec, 15000 µM
[4] = Antioxidant activity assessed as AAPH free radical scavenging activity measured as trolox equivalent by TRAP assay; format: physicochemical
[5] = Cytotoxicity against BAEC assessed as reduction in cell viability measured after 24 hrs by MTT assay; parameters: species or system Bos taurus; conditions: cattle
Aorta [6] = assay: Toxicity in Sprague-Dawley rat endothelium-intact aortic rings at 15 mM measured after 20 mins; conditions: 15000 µM
A549 [7] = assay: Cytotoxicity against human A549 cells assessed as reduction in cell viability measured after 48 hrs by FMCA assay; format: cell-based; conditions: A549, 48 h
[8] = Antioxidant activity assessed as inhibition of […]-xanthine oxidase system-mediated superoxide formation measured over 7 mins by lucigenin-based chemiluminescence analysis; format: physicochemical
[9] = Antioxidant activity assessed as DPPH scavenging activity measured after 3 mins by spectrophotometric method; format: physicochemical
Aorta [10] = assay: Potentiation of SNP-induced vasorelaxant activity in Sprague-Dawley rat endothelium-intact aortic rings assessed as reduction in L-phenylephrine hydrochloride-induced contraction at 200 uM relative to SNP; format: functional
A549 [11] = assay: Cytotoxicity against human A549 cells assessed as reduction in cell viability measured after 48 hrs by MTT assay; format: cell-based; conditions: A549, 48 h
A549 [12] = assay: Cytotoxicity against human A549 cells assessed as reduction in cell viability measured after 48 hrs by luminescence-based ATP assay; conditions: A549, 48 h
Aorta [13] = assay: Protection against superoxide-mediated tissue damage in Sprague-Dawley rat endothelium-intact aortic rings assessed as methyl radical adduct formation preincubated for 30 mins at 200 uM in presence of DTC measured after 4 days by EPR spectroscopy; format: functional
Aorta [14] = assay: Protection against NADPH-induced superoxide-mediated tissue damage in Sprague-Dawley rat endothelium-intact aortic rings assessed as decomposition of methyl radical adduct preincubated for 30 mins at 200 uM in presence of DTC prior to NADPH addition after 60 mins followed by renewal of media with NADPH-compound mixture measured after 4 days by EPR spectroscopy relative to control; format: functional
Aorta [15] = assay: Protection against NADPH-induced superoxide-mediated tissue damage in Sprague-Dawley rat endothelium-intact aortic rings assessed as methyl radical adduct formation pre-incubated for 30 mins at 200 uM in presence of DTC prior to NADPH addition measured after 60 mins followed by renewal of media with NADPH-compound mixture measured after 20 mins in presence of DPI by EPR spectroscopy; format: functional
Aorta [16] = assay: Protection against NADPH-induced superoxide-mediated tissue damage in Sprague-Dawley rat endothelium-intact aortic rings assessed as inhibition of protein carbonyl formation at 200 uM pre-incubated for 30 mins in presence of DTC prior to NADPH addition measured after 60 mins using 7-hydrazino-4-nitrobenzo-2,1,3-oxadiazole by fluorimetric analysis; format: functional
Aorta [17] = assay: Vasoprotective activity against oxidative stress-induced impairment of ACh-stimulated vasorelaxation in Sprague-Dawley rat endothelium-intact aortic rings assessed as reduction in L-phenylephrine hydrochloride-induced contraction preincubated for 10 to 20 mins in presence of xanthine-xanthine oxidase system prior to L-phenylephrine hydrochloride addition; format: functional
Aorta [18] = assay: Vasoprotective activity against oxidative stress-induced impairment of ACh-stimulated vasorelaxation in Sprague-Dawley rat endothelium-intact aortic rings assessed as reduction in L-phenylephrine hydrochloride-induced contraction preincubated for 10 to 20 mins in presence of xanthine-xanthine oxidase system at 200 uM prior to L-phenylephrine hydrochloride addition relative to ACh; format: functional

Chain of Xanthine dehydrogenase/oxidase (P47989 whole entry): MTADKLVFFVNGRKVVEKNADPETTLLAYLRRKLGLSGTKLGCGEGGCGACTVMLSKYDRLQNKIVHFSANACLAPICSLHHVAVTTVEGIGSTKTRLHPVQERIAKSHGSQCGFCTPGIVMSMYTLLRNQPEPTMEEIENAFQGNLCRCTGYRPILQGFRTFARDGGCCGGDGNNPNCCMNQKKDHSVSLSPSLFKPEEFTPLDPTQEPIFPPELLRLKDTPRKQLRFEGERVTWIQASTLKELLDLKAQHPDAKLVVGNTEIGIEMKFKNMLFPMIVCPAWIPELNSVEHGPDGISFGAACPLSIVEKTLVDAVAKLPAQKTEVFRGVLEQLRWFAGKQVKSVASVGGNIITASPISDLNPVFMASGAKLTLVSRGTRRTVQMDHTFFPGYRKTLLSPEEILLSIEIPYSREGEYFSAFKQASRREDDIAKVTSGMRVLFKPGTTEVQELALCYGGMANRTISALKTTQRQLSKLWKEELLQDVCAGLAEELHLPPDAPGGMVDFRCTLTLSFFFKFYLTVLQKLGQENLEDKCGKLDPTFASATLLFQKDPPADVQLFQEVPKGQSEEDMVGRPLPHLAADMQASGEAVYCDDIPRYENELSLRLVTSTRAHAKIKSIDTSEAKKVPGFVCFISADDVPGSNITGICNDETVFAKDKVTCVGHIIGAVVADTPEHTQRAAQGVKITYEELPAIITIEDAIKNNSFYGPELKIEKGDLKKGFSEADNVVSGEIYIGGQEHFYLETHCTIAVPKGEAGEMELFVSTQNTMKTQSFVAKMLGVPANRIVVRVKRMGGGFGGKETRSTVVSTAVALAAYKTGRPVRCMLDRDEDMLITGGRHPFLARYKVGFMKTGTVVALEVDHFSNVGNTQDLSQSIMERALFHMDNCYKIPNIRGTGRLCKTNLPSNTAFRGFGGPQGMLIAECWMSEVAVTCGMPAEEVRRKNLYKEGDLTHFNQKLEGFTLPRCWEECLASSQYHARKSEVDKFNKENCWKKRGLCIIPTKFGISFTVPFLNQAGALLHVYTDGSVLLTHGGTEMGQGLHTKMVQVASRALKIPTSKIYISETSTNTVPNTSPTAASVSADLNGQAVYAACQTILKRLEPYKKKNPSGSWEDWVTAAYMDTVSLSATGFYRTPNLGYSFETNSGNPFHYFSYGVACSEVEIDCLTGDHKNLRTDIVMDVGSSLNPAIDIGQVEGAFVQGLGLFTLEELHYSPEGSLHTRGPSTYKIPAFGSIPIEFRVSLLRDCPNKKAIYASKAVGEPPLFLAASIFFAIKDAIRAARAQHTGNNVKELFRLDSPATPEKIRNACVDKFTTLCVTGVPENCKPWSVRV

Row | SMILES | inhibition (INH) [1] | Activity [2] | Activity [3] | Activity [4] | IC10 [5] | Activity (Aorta [6]) | IC50 (A549 [7]) | IC50 [8] | EC50 [9] | Rmax (Aorta [10]) | IC50 (A549 [11]) | IC50 (A549 [12]) | Activity (Aorta [13]) | Activity (Aorta [14]) | Activity (Aorta [15]) | inhibition (Aorta [16]) | EC50 (Aorta [17]) | Rmax (Aorta [18])
1 | CCOP(=O)(OCC)C(C)(C)/[N+]([O-])=C/c1ccccc1O | Not Active | < 10% | 21% | 0.25 equiv | 1.4 mM | Non-toxic | 8.2 mM | 0.0335 mM | > 1 mM | 99% | 9 mM | 9.3 mM |  |  |  |  |  | 
2 | CCOP(=O)(OCC)C(C)(C)/[N+]([O-])=C/c1ccc(O)cc1O | Not Active | < 10% |  | 1.61 equiv |  | Non-toxic |  | 0.0433 mM | > 1 mM |  |  |  |  |  |  |  |  | 
3 | CCOP(=O)(OCC)C(C)(C)/[N+]([O-])=C/c1cccc(O)c1 | Not Active | < 10% | 26% | 0.1 equiv | 0.8 mM | Non-toxic | 7.6 mM | 0.123 mM | > 1 mM | 99% | 7.5 mM | 8.3 mM | inactive | 6% | inactive | Active |  | 
4 | CCOC(=O)c1ccc(/C=[N+](\[O-])C(C)(C)P(=O)(OCC)OCC)cc1 | Not Active |  |  | 0.16 equiv | 0.4 mM |  | 4.5 mM | 0.0068 mM | > 1 mM |  | 3.5 mM | 3.6 mM |  |  |  |  |  | 
5 | CCOP(=O)(OCC)C(C)(C)/[N+]([O-])=C/c1ccc(O)c(O)c1 | Not Active | < 10% | 28% | 2.22 equiv | 0.5 mM | Non-toxic | 1.9 mM | 0.0002 mM | 0.022 mM | 103% | 1.3 mM | 1.9 mM | inactive | < 5% | inactive | Active | 40.7 nM | 93%
6 | CCOP(=O)(OCC)C(C)(C)/[N+]([O-])=C/c1ccc(NC(C)=O)cc1 | Not Active |  |  | 0.02 equiv |  |  |  | 0.0263 mM | > 1 mM |  |  |  |  |  |  |  |  | 
7 | CCOP(=O)(OCC)C(C)(C)/[N+]([O-])=C/c1cccc([N+](=O)[O-])c1 | Not Active | < 10% |  | 0.02 equiv |  | Non-toxic |  | 0.0523 mM | > 1 mM |  |  |  |  |  |  |  |  | 
8 | CCOP(=O)(OCC)C(C)(C)/[N+]([O-])=C/c1ccc(O)cc1 | Not Active | < 10% | 18% | 0.65 equiv | 1.6 mM | Non-toxic | 10.5 mM | 0.0608 mM | > 1 mM | 99% | 13 mM | 12.4 mM | inactive | < 5% | inactive | Active |  | 
9 | O=C(O)/C=C/c1ccc(O)c(O)c1 [CAFFEIC ACID] |  |  |  | 2.73 equiv | 0.2 mM |  | 0.5 mM | 0.0001 mM | 0.017 mM |  | 0.7 mM | 0.7 mM |  |  |  |  |  | 
10 | COc1cc(/C=C/C(=O)O)cc(OC)c1O [SINAPINATE] |  |  |  | 1.64 equiv | 1.2 mM |  | 4.6 mM | 0.0224 mM | 0.035 mM |  | 4.9 mM | 5.7 mM |  |  |  |  |  | 
11 | CCOP(=O)(OCC)C(C)(C)/[N+]([O-])=C/c1cc(O)cc(O)c1 | Not Active | < 10% | 23% | 0.7 equiv | 0.6 mM | Non-toxic | 4.9 mM | 0.187 mM | > 1 mM | 98% | 7.9 mM | 7 mM | inactive | < 5% | inactive | Active |  | 
12 | Cc1c(C)c2c(c(C)c1O)CCC(C)(C(=O)O)O2 (stereo unspecified) [TROLOX] |  |  |  |  |  |  |  | 0.0133 mM | 0.02 mM |  |  |  |  |  |  |  |  | 
13 | CCOP(=O)(OCC)C(C)NC(C)(C)C (stereo unspecified) |  |  |  |  |  |  |  | > 40 mM |  |  |  |  |  |  |  |  |  | 
14 | COc1cc(/C=C/C(=O)O)ccc1O [FERULATE] |  |  |  | 2.16 equiv | 0.8 mM |  | 2.6 mM | 0.0349 mM | 0.061 mM |  | 3.1 mM | 3.2 mM |  |  |  |  |  | 
15 | O=c1c(O)c(-c2ccc(O)c(O)c2)oc2cc(O)cc(O)c12 [QUERCETIN] |  |  |  | 6.28 equiv |  |  |  | 0.0005 mM | 0.013 mM |  |  |  |  |  |  |  |  | 
16 | O=C(O)c1cc(O)c(O)c(O)c1 [GALLIC ACID] |  |  |  | 1.18 equiv | < 0.1 mM |  | 0.4 mM | 0.0007 mM | 0.007 mM |  | 0.4 mM | 0.4 mM |  |  |  |  |  | 
17 | CCOP(=O)(OCC)C(C)(C)/[N+]([O-])=C/c1ccc(C(=O)O)cc1 | Not Active |  |  | 0.02 equiv | 1.3 mM |  | 7.9 mM | 0.0041 mM | > 1 mM |  | 7.3 mM | 8.2 mM |  |  |  |  |  | 
18 | CCOP(=O)(OCC)C(C)(C)/[N+]([O-])=C/c1ccc([N+](=O)[O-])cc1 | Not Active | < 10% | 53% | 0.02 equiv | < 0.1 mM | Non-toxic | 1.1 mM | 0.0093 mM | > 1 mM | 101% | 1.2 mM | 1 mM |  |  |  |  |  | 
